Source: patent US20220177456A1, “COMPOUNDS, COMPOSITIONS AND METHODS” (Denali Therapeutics Inc., priority 2019, published 2022)

These compounds were tested on ISR pathway (ATF4 translation), H4 ATF4-NLuc (clone 17) cell line (assay: ATF4 Nano Luciferase reporter integrated stress response (ISR) assay in H4 ATF4-NLuc cells). Details: human H4 neuroglioma ATF4-NLuc cells; compound 30 minutes, then 50 μm sodium arsenite for 6 hours; luminescence readout.
Assay type: cell-based
Description: Cellular stress leads to activation of the integrated stress response pathway through one of four eukaryotic initiation factor 2α kinases and halts global translation, while allowing for the translation of select transcripts like ATF4 (activating transcription factor 4) that are important for the response to cellular stress. During normal conditions, small open reading frames (ORFs) in the 5′ UTR of ATF4 occupy the ribosome and prevent translation of the coding sequence of ATF4. During stress conditions however, the ribosome scans past these upstream ORFs and preferentially begins translation at the coding sequence of ATF4. In this way, the translation, and thus protein level of ATF4 is a readout of ISR pathway activation. Thus, a fusion of the uORFs and the beginning of the coding sequence of ATF to a common cellular reporter like nano-luciferase allows for a sensitive and high-throughput readout of ISR pathway activity.
Compounds as provided herein were tested in the following assay. The ATF4 Nano Luciferase reporter was constructed by fusing the human full length 5′ untranslated region (5′-UTR) and a small portion of the coding sequence of the ATF4 gene upstream of the Nano Luciferase (NLuc) coding sequence lacking it's start codon. Specifically, nucleotides +1 through +364 (relative to the transcriptional start site) of ATF4 transcript variant 2 (NCBI NM_182810.2) flanked 5′ by EcoRI and 3′ by BamHI restriction enzyme sites were synthesized and cloned into the EcoRI/BamHI cloning sites of pLVX-EF1a-IRES-Puro lentivirus vector (Clontech). Lentiviral particles were produced with Lenti-X single shots (VSV-G, Clontech) according to the manufacturer's instructions and used to transduce a human H4 neuroglioma cell line (ATCC HT1B-148). H4 cells were selected with 1.25 μg/mL Puromycin, and clonal cell lines generated by limiting dilution. We utilized this cell line to generate an integrated stress response (ISR) assay to evaluate the activity of ISR pathway inhibitors via luminescence readout. The H4 ATF4-NLuc (clone 17) cell line is plated at a density of […] cells in 96-well or 384-well respectively in DMEM +10% fetal bovine serum. 24-hours later test compounds diluted in dimethyl sulfoxide (DMSO) are added for 30 minutes at 37° C., followed by ISR pathway activation with 50 μm sodium arsenite aqueous solution for 6 additional hours. Nano Glo luciferase reagent (N1150, Promega) is added according to manufacturer instructions and the luminescence signal (corresponding to the level of ATF4 translation and thus ISR pathway activation) is read with a standard plate reader with luminescence detection capabilities.
In the tables below, activity of the tested compounds is provided, and in Table 3 as follows: +++=0.003 μM<IC50<1 μM; ++=IC50 1-10 μM; +=IC50>10 μM.

Row | Structure (SMILES) | IC50
1 | O=C(COc1ccc(C(F)(F)F)cc1)N[C@@H]1CC[C@@H](C(=O)N[C@H]2C[C@@H](COC(F)(F)F)C2)OC1 [Example 13, (2S,5R)-N-[3-cis-(trifluoromethoxymethyl)cyclobutyl]-5-[[2-[4-(trifluoromethyl)phenoxy]acetyl]amino]tetrahydropyran-2-carboxamide] | 3 to 1000 nM
2 | C[C@H](NC(=O)[C@@H]1CC[C@@H](NC(=O)COc2ccc(Cl)cc2)CO1)c1ccc(Cl)cc1 [Example 18, (2S,5R)-5-[[2-(4-chlorophenoxy)acetyl]amino]-N-[(1S)-1-(4-chlorophenyl)ethyl] tetrahydropyran-2-carboxamide] | 3 to 1000 nM
3 | O=C(COc1ccc(Cl)cc1)N[C@@H]1CC[C@@H](C(=O)NCc2ccc(C(F)(F)F)cc2)OC1 [Example 20, (2S,5R)-5-[[2-(4-chlorophenoxy)acetyl]amino]-N-[[4-(trifluoromethyl)phenyl]methyl] tetrahydropyran-2-carboxamide] | 3 to 1000 nM
4 | O=C(COc1ccc(Cl)cc1)N[C@@H]1CC[C@@H](C(=O)N2CCc3cc(Cl)ccc3C2)OC1 [Example 22, 2-(4-chlorophenoxy)-N-[(3R,6S)-6-(6-chloro-3,4-dihydro-1H-isoquinoline-2-carbonyl)tetrahydropyran-3-yl]acetamide] | 3 to 1000 nM
5 | O=C(NCC1CC(OC(F)(F)F)C1)[C@@H]1CC[C@@H](n2cnc(-c3ccc(Cl)c(F)c3)c2)CO1 (stereo partly drawn) [Example 23, (2S,5R)-5-[4-(4-chloro-3-fluoro-phenyl)imidazol-1-yl]-N-[[3-(trifluoromethoxy)cyclobutyl]methyl] tetrahydropyran-2-carboxamide] | 3 to 1000 nM
6 | O=C(N[C@H]1C[C@@H](OC(F)(F)F)C1)[C@@H]1CC[C@@H](n2cnc(-c3ccc(Cl)c(F)c3)c2)CO1 [Example 25, (2S,5R)-5-[4-(4-chloro-3-fluoro-phenyl)imidazol-1-yl]-N-[3-cis-(trifluoromethoxy)cyclobutyl] tetrahydropyran-2-carboxamide] | 3 to 1000 nM
7 | O=C(NC[C@H]1C[C@@H](OC(F)(F)F)C1)[C@@H]1CC[C@@H](n2cnc(-c3ccc(Cl)c(F)c3)c2)CO1 [Example 26, (2S,5R)-5-[4-(4-chloro-3-fluoro-phenyl)imidazol-1-yl]-N-[[3-cis-(trifluoromethoxy)cyclobutyl]methyl] tetrahydropyran-2-carboxamide] | 3 to 1000 nM
8 | O=C(COc1ccc(C(F)(F)F)cc1)N[C@@H]1CC[C@@H](C(=O)Nc2ccc3cc(C(F)(F)F)ccc3n2)OC1 [Example 28, (2S,5R)-5-[[2-[4-(trifluoromethyl)phenoxy]acetyl]amino]-N-[6-(trifluoromethyl)-2-quinolyl]tetrahydropyran-2-carboxamide] | 3 to 1000 nM
9 | O=C(COc1ccc(Cl)cc1)N[C@@H]1CC[C@@H](C(=O)NCc2ccc(Cl)cc2)OC1 [Example 29, (2S,5R)-5-[[2-(4-chlorophenoxy)acetyl]amino]-N-[(4-chlorophenyl)methyl] tetrahydropyran-2-carboxamide] | 3 to 1000 nM
10 | O=C(COc1ccc(Cl)c(F)c1)N[C@@H]1CC[C@@H](C(=O)N2CCC(OC(F)(F)F)C2)OC1 (stereo partly drawn) [Example 31, 2-(4-chloro-3-fluoro-phenoxy)-N-[(3R,6S)-6-[3-(trifluoromethoxy)pyrrolidine-1-carbonyl]tetrahydropyran-3-yl]acetamide] | 3 to 1000 nM

Second part, the compound after the results:

Row | IC50 | Structure (SMILES)
11 | 3 to 1000 nM | O=C(COc1ccc(Cl)cc1)N[C@@H]1CC[C@@H](C(=O)NCc2cccc(C(F)(F)F)c2)OC1 [Example 14, (2S,5R)-5-[[2-(4-chlorophenoxy)acetyl]amino]-N-[[3-(trifluoromethyl)phenyl]methyl] tetrahydropyran-2-carboxamide]
12 | 3 to 1000 nM | O=C(COc1ccc(Cl)cc1)N[C@@H]1CC[C@@H](C(=O)NCc2cccc(Cl)c2)OC1 [Example 15, (2S,5R)-5-[[2-(4-chlorophenoxy)acetyl]amino]-N-[(3-chlorophenyl)methyl] tetrahydropyran-2-carboxamide]
13 | 3 to 1000 nM | O=C(COc1ccc(Cl)cc1)N[C@@H]1CC[C@@H](C(=O)NCc2ccc(C(F)(F)F)nc2)OC1 [Example 16, (2S,5R)-5-[[2-(4-chlorophenoxy)acetyl]amino]-N-[[6-(trifluoromethyl)-3-pyridyl]methyl] tetrahydropyran-2-carboxamide]
14 | 3 to 1000 nM | C[C@@H](NC(=O)[C@@H]1CC[C@@H](NC(=O)COc2ccc(Cl)cc2)CO1)c1ccc(Cl)cc1 [Example 17, (2S,5R)-5-[[2-(4-chlorophenoxy)acetyl]amino]-N-[(1R)-1-(4-chlorophenyl)ethyl] tetrahydropyran-2-carboxamide]
15 | 3 to 1000 nM | CN(Cc1ccc(Cl)cc1)C(=O)[C@@H]1CC[C@@H](NC(=O)COc2ccc(Cl)cc2)CO1 [Example 19, (2S,5R)-5-[[2-(4-chlorophenoxy)acetyl]amino]-N-[(4-chlorophenyl)methyl]-N-methyl-tetrahydropyran-2-carboxamide]
16 | 3 to 1000 nM | O=C(COc1ccc(Cl)cc1)N[C@@H]1CC[C@@H](C(=O)N2CCc3ccc(Cl)cc3C2)OC1 [Example 21, 2-(4-chlorophenoxy)-N-[(3R,6S)-6-(7-chloro-3,4-dihydro-1H-isoquinoline-2-carbonyl)tetrahydropyran-3-yl]acetamide]
17 | 3 to 1000 nM | O=C(N[C@H]1C[C@@H](COC(F)(F)F)C1)[C@@H]1CC[C@@H](n2cnc(-c3ccc(Cl)c(F)c3)c2)CO1 [Example 24, (2S,5R)-5-[4-(4-chloro-3-fluoro-phenyl)imidazol-1-yl]-N-[3-cis-(trifluoromethoxymethyl)cyclobutyl] tetrahydropyran-2-carboxamide]
18 | 3 to 1000 nM | O=C(COc1ccc(Cl)cc1)N[C@@H]1CC[C@@H](C(=O)NCc2ccc(C(F)(F)F)cn2)OC1 [Example 27, (2S,5R)-5-[[2-(4-chlorophenoxy)acetyl]amino]-N-[[5-(trifluoromethyl)-2-pyridyl]methyl] tetrahydropyran-2-carboxamide]
19 | 3 to 1000 nM | O=C(COc1ccc(Cl)c(F)c1)N[C@@H]1CC[C@@H](C(=O)N2CCC(OC(F)(F)F)CC2)OC1 [Example 30, 2-(4-chloro-3-fluoro-phenoxy)-N-[(3R,6S)-6-[4-(trifluoromethoxy)piperidine-1-carbonyl]tetrahydropyran-3-yl]acetamide]
